Experimental data reported in ChEMBL document CHEMBL5154648, “Antitumor activity of novel POLA1-HDAC11 dual inhibitors” (Eur J Med Chem, 2022).
The source made the active and inactive calls. The calls are words filed in the database; no cut-off is given here.

Key:
[1] = tested on: H460-R9A; assay: Antiproliferative activity against human H460-R9A cells at 0.75 to 12 uM after 72 hrs by MTT assay; assay type: functional, cell-based; conditions: dose 0.75-12 µM
[2] = Induction of cell cycle arrest in human H460-R9A cells assessed as accumulation of cells at G2/M phase at 2.2 uM after 72 hrs by flow cytometry (reference value: 15.4%); assay type: functional
[3] = Induction of cell cycle arrest in human H460-R9A cells assessed as accumulation of cells at sub-G1 phase at 2.2 uM after 72 hrs by flow cytometry (reference value: 1.5%); assay type: functional
[4] = tested on: NCI-H460; assay: Antitumor activity against human NCI-H460 cells xenografted in mouse assessed as tumor growth inhibition at 20 mg/kg, po qd administered […] for 3 to 4 weeks; assay type: functional; conditions: time 3-4 weeks, read-out: TGI
[5] = tested on: NCI-H460; assay: Induction of cell cycle arrest in human NCI-H460 cells assessed as accumulation of cells at G0/1 phase at 0.25 uM after 72 hrs by flow cytometry (reference value: 46.8%); assay type: functional
[6] = target: T1, Histone deacetylase 11 (Homo sapiens) (UniProt Q96DB2); assay: Inhibition of HDAC11 in human MM487 cells at 0.1 to 0.4 uM assessed as induction of p53 acetylation and measured by Western blot analysis; assay type: cell-based; conditions: dose 0.1-0.4 µM
T1 sequence (whole entry): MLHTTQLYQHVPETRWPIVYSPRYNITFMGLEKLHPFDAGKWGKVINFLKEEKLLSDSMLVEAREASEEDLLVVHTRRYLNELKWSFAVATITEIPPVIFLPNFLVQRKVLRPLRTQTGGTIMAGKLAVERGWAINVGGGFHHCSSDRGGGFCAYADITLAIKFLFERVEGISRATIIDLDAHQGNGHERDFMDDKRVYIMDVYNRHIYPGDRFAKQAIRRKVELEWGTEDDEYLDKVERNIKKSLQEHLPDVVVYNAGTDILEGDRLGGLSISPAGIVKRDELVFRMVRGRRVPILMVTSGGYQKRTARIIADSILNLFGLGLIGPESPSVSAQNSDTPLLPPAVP

[7] = tested on: A2780; assay: Induction of cell cycle arrest in human A2780 cells assessed as accumulation of cells at S phase at 0.6 uM after 72 hrs by flow cytometry (reference value: 36.3%); assay type: functional
[8] = tested on: MM473; assay: Antitumor activity against human MM473 cells xenografted in mouse assessed as tumor growth inhibition at 50 mg/kg, po bid administered 5 times a week for 3 weeks; assay type: functional; conditions: MM473, 504 h, read-out: TGI
[9] = tested on: MM487; assay: Induction of DNA damage in human MM487 cells at 0.1 to 0.4 uM assessed as increase in p-H2AX levels and measured by Western blot analysis; assay type: functional, cell-based; conditions: dose 0.1-0.4 µM
[10] = tested on: MM473; assay: Induction of DNA damage in human MM473 cells at 0.1 to 0.4 uM assessed as increase in p-H2AX levels and measured by Western blot analysis; assay type: functional, cell-based; conditions: dose 0.1-0.4 µM
[11] = tested on: MM473; assay: Induction of cell cycle arrest in human MM473-Luc cells assessed as accumulation of cells at sub-G1 phase at 1.4 uM after 72 hrs by flow cytometry (reference value: 1.3%); assay type: functional
[12] = tested on: A2780; assay: Induction of cell cycle arrest in human A2780 cells assessed as accumulation of cells at sub-G1 phase at 0.95 uM after 72 hrs by flow cytometry (reference value: 1.6%); assay type: functional
[13] = target: T2, Protein deacetylase HDAC6 (Homo sapiens) (UniProt Q9UBN7); assay: Inhibition of HDAC6 in human NCI-H460 cells at high-dose assessed as increase in alpha-tubulin acetylation measured by Western blot analysis; assay type: cell-based
T2 sequence (whole entry): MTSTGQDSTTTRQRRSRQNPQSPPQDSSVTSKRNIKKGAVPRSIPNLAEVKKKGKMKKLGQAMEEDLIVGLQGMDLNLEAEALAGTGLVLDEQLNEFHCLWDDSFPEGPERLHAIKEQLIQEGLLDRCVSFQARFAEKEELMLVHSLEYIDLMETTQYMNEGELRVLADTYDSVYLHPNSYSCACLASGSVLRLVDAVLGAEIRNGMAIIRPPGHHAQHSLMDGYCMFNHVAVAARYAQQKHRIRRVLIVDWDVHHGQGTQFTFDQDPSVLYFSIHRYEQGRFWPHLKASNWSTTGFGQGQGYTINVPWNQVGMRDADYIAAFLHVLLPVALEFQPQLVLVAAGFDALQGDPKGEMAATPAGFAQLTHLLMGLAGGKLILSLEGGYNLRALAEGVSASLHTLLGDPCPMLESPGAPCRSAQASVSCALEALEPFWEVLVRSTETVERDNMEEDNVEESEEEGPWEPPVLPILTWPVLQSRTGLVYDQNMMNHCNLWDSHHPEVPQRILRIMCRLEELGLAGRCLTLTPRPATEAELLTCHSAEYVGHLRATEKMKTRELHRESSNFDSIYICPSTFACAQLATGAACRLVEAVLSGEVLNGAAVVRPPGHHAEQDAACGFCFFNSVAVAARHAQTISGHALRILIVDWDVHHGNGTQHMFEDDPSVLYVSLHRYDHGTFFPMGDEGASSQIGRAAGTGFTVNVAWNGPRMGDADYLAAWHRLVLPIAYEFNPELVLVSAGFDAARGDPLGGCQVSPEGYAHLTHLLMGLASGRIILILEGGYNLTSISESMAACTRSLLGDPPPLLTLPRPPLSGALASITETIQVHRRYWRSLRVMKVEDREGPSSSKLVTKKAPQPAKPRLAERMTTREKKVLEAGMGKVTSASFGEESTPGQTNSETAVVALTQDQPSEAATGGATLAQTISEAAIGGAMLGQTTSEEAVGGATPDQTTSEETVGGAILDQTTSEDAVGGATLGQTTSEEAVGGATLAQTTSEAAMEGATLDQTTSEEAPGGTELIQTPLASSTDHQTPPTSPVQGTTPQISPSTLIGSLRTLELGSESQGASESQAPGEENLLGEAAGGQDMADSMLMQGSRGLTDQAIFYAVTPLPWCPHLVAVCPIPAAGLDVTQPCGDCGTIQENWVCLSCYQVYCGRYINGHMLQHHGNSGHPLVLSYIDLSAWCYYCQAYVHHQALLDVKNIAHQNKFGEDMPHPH

[14] = tested on: NCI-H460; assay: Down-regulation of POLA1 protein expression in human NCI-H460 cells at 0.26 uM measured by Western blot analysis; assay type: functional, cell-based
[15] = tested on: NCI-H460; assay: Induction of cell cycle arrest in human NCI-H460 cells assessed as accumulation of cells at sub-G1 phase at 0.26 uM after 72 hrs by flow cytometry (reference value: 1.1%); assay type: functional
[16] = tested on: A2780; assay: Induction of cell cycle arrest in human A2780 cells assessed as accumulation of cells at G2/M phase at 0.95 uM after 72 hrs by flow cytometry (reference value: 15%); assay type: functional
[17] = Antitumor activity against human MM487 cells xenografted in mouse assessed as tumor growth inhibition at 50 mg/kg, po bid administered 5 times a week for 3 weeks; assay type: functional; conditions: MM487, 504 h, read-out: TGI
[18] = target: T1, Histone deacetylase 11 (Homo sapiens); assay: Inhibition of HDAC11 in human A2780 cells at 0.1 to 0.4 uM assessed as induction of p53 acetylation and measured by Western blot analysis; assay type: cell-based; conditions: dose 0.1-0.4 µM

For `O=C(O)C=Cc1ccc(-c2ccc(O)c(C34CC5CC(CC(C5)C3)C4)c2)cc1`, the Activity [1] was “Active”, the Activity [2] was 13.8% and the Activity [3] was 26.7%. For the same compound, the inhibition in vivo at 20 mg/kg [4] was 64%.
In the case of `O=C(O)C=Cc1ccc(-c2ccc(OCC(=O)NO)c(C34CC5CC(CC(C5)C3)C4)c2)cc1`, the Activity [5] is reported as 16.3%, the inhibition [6] is reported as “Active” and the Activity [7] is reported as 78.9%. For the same compound, the inhibition in vivo at 50 mg/kg [8] was 77%, the Activity [9] was “Active” and the Activity [10] was “Active”.
With `CC(Oc1ccc(-c2ccc(C=CC(=O)O)cc2)cc1C12CC3CC(CC(C3)C1)C2)C(=O)NO` (stereo not drawn) the Activity [11] was 10.2%, the Activity [12] was 23% and the inhibition [13] was “Active”. For the same compound, the Activity [14] was “Active”, the Activity [15] was 13.2% and the Activity [16] was 3%. The inhibition in vivo at 50 mg/kg [17] was 72% and the inhibition [18] was “Active”.
